“And” between values parts separate entries of the source, which are not always exact repeats. Equal entries are not always repeated. Toxic doses and inconclusive results are not listed. Rule as the data show it: active = T/C of 150% or more; inactive = T/C below 125%.
Tested on: L1210 leukemia ip in BDF1 mice, survival T/C
Experiment: NCI In Vivo Anticancer Drug Screen. Data for tumor model L1210 Leukemia (intraperitoneal) in B6D2F1 (BDF1) mice
Conditions: endpoint: mean survival time, higher = longer survival
Procedure, shortened: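 Tumor was transplanted into mice, which were then dosed with test compound or vehicle alone. Survival was recorded for each group, and the treated figure was expressed relative to the control figure.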

[1] = dose: 100.0 mg/kg/injection, schedule: Q01DX009 (ip), vehicle: Klucel (hydroxypropylcellulose) (HPC)
[2] = dose: 200.0 mg/kg/injection, schedule: Q01DX009 (ip), vehicle: Klucel (hydroxypropylcellulose) (HPC)
[3] = dose: 400.0 mg/kg/injection, schedule: Q01DX009 (ip), vehicle: Klucel (hydroxypropylcellulose) (HPC)
[4] = dose: 100.0 mg/kg/injection, schedule: Q01DX001 (ip), vehicle: saline
[5] = dose: 200.0 mg/kg/injection, schedule: Q01DX001 (ip), vehicle: saline
[6] = dose: 400.0 mg/kg/injection, schedule: Q01DX001 (ip), vehicle: saline
[7] = dose: 100.0 mg/kg/injection, schedule: Q01DX001 (ip), vehicle: carboxymethylcellulose (CMC)
[8] = dose: 200.0 mg/kg/injection, schedule: Q01DX001 (ip), vehicle: carboxymethylcellulose (CMC)
[9] = dose: 100.0 mg/kg/injection, schedule: Q04DX003 (ip), vehicle: Klucel (hydroxypropylcellulose) (HPC)
[10] = dose: 200.0 mg/kg/injection, schedule: Q04DX003 (ip), vehicle: Klucel (hydroxypropylcellulose) (HPC)
[11] = dose: 400.0 mg/kg/injection, schedule: Q04DX003 (ip), vehicle: Klucel (hydroxypropylcellulose) (HPC)
[12] = dose: 50.0 mg/kg/injection, schedule: Q01DX001 (ip), vehicle: carboxymethylcellulose (CMC)
[13] = dose: 400.0 mg/kg/injection, schedule: Q01DX001 (ip), vehicle: carboxymethylcellulose (CMC)
[14] = dose: 25.0 mg/kg/injection, schedule: Q01DX009 (ip), vehicle: saline

Measured: T/C

O=[N+]([O-])c1cc(Cl)c(O)c(Cl)c1Cl
inactive: dose: 25.0 mg/kg/injection, schedule: Q01DX009 (ip), vehicle: acetone 97 % of control | dose: 50.0 mg/kg/injection, schedule: Q01DX009 (ip), vehicle: acetone 97 % of control | dose: 50.0 mg/kg/injection, schedule: Q04DX003 (ip), vehicle: acetone 95 % of control | dose: 100.0 mg/kg/injection, schedule: Q01DX001 (ip), vehicle: acetone 102 % of control | dose: 100.0 mg/kg/injection, schedule: Q01DX009 (ip), vehicle: acetone 88 % of control | dose: 100.0 mg/kg/injection, schedule: Q04DX003 (ip), vehicle: acetone 92 % of control | dose: 150.0 mg/kg/injection, schedule: Q01DX009 (ip), vehicle: saline 90 % of control | dose: 200.0 mg/kg/injection, schedule: Q01DX001 (ip), vehicle: acetone 100 % of control | dose: 225.0 mg/kg/injection, schedule: Q01DX009 (ip), vehicle: saline 87 % of control

CCOc1cc(/C=N/NC(=O)COCC(=O)N/N=C/c2ccc(O)c(OCC)c2)ccc1O
inactive: [1] 88 % of control | [2] 92 % of control | [3] 97 % of control

O=[N+]([O-])c1ccc(CC2=NCCc3cc4c(cc32)OCO4)cc1
inactive: [4] 98 % of control | [5] 96 % of control | [6] 105 % of control

CC1(C)OC2C(C(N)=O)OC(n3cnc4c(N)ncnc43)C2O1 (configuration not stated)
inactive: dose: 100.0 mg/kg/injection, schedule: Q01DX005 (ip), vehicle: saline 104 % of control | dose: 200.0 mg/kg/injection, schedule: Q01DX005 (ip), vehicle: saline 102 % of control

COc1cc(CCO)cc(OC)c1
inactive: [7] 86 % of control | [8] 86 % of control

CCOc1ccc2ccccc2c1
inactive: [4] 102 % of control | [5] 98 % of control | [6] 102 % of control

CCCCSP(=O)(SCCCC)N1CCCCC1
inactive: dose: 25.0 mg/kg/injection, schedule: Q04DX002 (ip), vehicle: saline with Tween-80 108 % of control | dose: 50.0 mg/kg/injection, schedule: Q04DX002 (ip), vehicle: saline with Tween-80 89 % of control | dose: 100.0 mg/kg/injection, schedule: Q04DX002 (ip), vehicle: saline with Tween-80 101 % of control

CC(=O)C(CCS(C)(=O)=O)(CCS(C)(=O)=O)C(=O)O
inactive: [9] 107 % of control | [10] 94 % of control | [11] 103 % of control

Cc1ccc(C(=O)OCC2OC(OC3CC(OC(=O)c4ccc(C)cc4)C(COC(=O)c4ccc(C)cc4)O3)CC2OC(=O)c2ccc(C)cc2)cc1 (configuration not stated)
inactive: [12] 101 % of control | [7] 87 % of control | [8] 101 % of control | [13] 97 % of control

NCCSc1ccccc1C(=O)O
inactive: [9] 92 % of control | [10] 112 % of control | [11] 102 % of control

CC1(C)SC(C)(C)C1=O
inactive: dose: 50.0 mg/kg/injection, schedule: Q04DX002 (ip), vehicle: gum acacia 100 % of control | dose: 100.0 mg/kg/injection, schedule: Q04DX002 (ip), vehicle: gum acacia 96 % of control | dose: 200.0 mg/kg/injection, schedule: Q04DX002 (ip), vehicle: gum acacia 107 % of control

CCCCn1c(C)cc2c(c1=O)COC(=O)C2CC (configuration not stated)
inactive: dose: 2.5 mg/kg/injection, schedule: Q04DX003 (ip), vehicle: saline 100 % of control | dose: 5.0 mg/kg/injection, schedule: Q04DX003 (ip), vehicle: saline 100 % of control | dose: 10.0 mg/kg/injection, schedule: Q04DX003 (ip), vehicle: saline 95 % of control | dose: 20.0 mg/kg/injection, schedule: Q04DX003 (ip), vehicle: saline 97 % of control | dose: 40.0 mg/kg/injection, schedule: Q04DX003 (ip), vehicle: saline 94 % of control | dose: 80.0 mg/kg/injection, schedule: Q04DX003 (ip), vehicle: saline 95 % of control

CN(C)/N=C/c1ccc[n+](C)c1
inactive: dose: 6.25 mg/kg/injection, schedule: Q01DX009 (ip), vehicle: saline 113 % of control | dose: 12.5 mg/kg/injection, schedule: Q01DX009 (ip), vehicle: saline 109 % of control | [14] 98 % of control and 110 % of control

O=C(c1ccccc1)C1C(c2ccccc2)N1C(=O)c1ccccc1 (configuration not stated)
inactive: [1] 94 % of control | [9] 102 % of control | [2] 101 % of control | [10] 90 % of control | [3] 89 % of control | [11] 90 % of control

CSc1nccc(Cl)n1
inactive: [12] 105 % of control | [7] 102 % of control | [8] 96 % of control | [13] 91 % of control

CC(=O)Nc1ccc(S(=O)(=O)Oc2ccc([N+](=O)[O-])cc2)cc1
inactive: [14] 94 % of control | dose: 50.0 mg/kg/injection, schedule: Q01DX009 (ip), vehicle: saline 96 % of control | dose: 100.0 mg/kg/injection, schedule: Q01DX009 (ip), vehicle: saline 94 % of control | dose: 400.0 mg/kg/injection, schedule: Q01DX009 (ip), vehicle: saline 100 % of control

Cn1c2c(c3ccccc31)=NN1CCN=C1N=2
inactive: dose: 6.25 mg/kg/injection, schedule: Q04DX002 (ip), vehicle: saline 107 % of control | dose: 12.5 mg/kg/injection, schedule: Q04DX002 (ip), vehicle: saline 103 % of control

CCOc1ccccc1NC(=O)Nc1cccc(Cl)c1
inactive: [9] 100 % of control | [2] 94 % of control | [10] 100 % of control | [3] 97 % of control | [11] 104 % of control

COc1ccc(-n2cnnn2)cc1
inactive: [4] 103 % of control | [5] 103 % of control | [6] 103 % of control

COC1C=CC23c4cc5c(cc4C(O)OC2CN(C)C3C1)OCO5 (configuration not stated)
inactive: [4] 106 % of control

c1ccc(-c2cnc(-c3ccccc3)cn2)cc1
inactive: dose: 25.6 mg/kg/injection, schedule: Q04DX002 (ip), vehicle: saline with Tween-80 112 % of control | dose: 64.0 mg/kg/injection, schedule: Q04DX002 (ip), vehicle: saline with Tween-80 96 % of control | dose: 160.0 mg/kg/injection, schedule: Q04DX002 (ip), vehicle: saline with Tween-80 93 % of control | dose: 400.0 mg/kg/injection, schedule: Q04DX002 (ip), vehicle: saline with Tween-80 104 % of control

CC1(C)CC(=O)C2=C(C1)Nc1ccc(Cl)cc1NC2c1ccccc1 (configuration not stated)
inactive: dose: 25.0 mg/kg/injection, schedule: Q04DX002 (ip), vehicle: Klucel (hydroxypropylcellulose) (HPC) 92 % of control | dose: 50.0 mg/kg/injection, schedule: Q04DX002 (ip), vehicle: Klucel (hydroxypropylcellulose) (HPC) 106 % of control | dose: 100.0 mg/kg/injection, schedule: Q04DX002 (ip), vehicle: Klucel (hydroxypropylcellulose) (HPC) 92 % of control | dose: 200.0 mg/kg/injection, schedule: Q04DX002 (ip), vehicle: Klucel (hydroxypropylcellulose) (HPC) 103 % of control and 113 % of control | dose: 400.0 mg/kg/injection, schedule: Q04DX002 (ip), vehicle: Klucel (hydroxypropylcellulose) (HPC) 106 % of control

CC(=O)OC1=C(CC=C(C)C)C(=O)c2ccccc2C1=O
inactive: dose: 50.0 mg/kg/injection, schedule: Q01DX001 (ip), vehicle: water 97 % of control | dose: 100.0 mg/kg/injection, schedule: Q01DX001 (ip), vehicle: water 95 % of control | dose: 200.0 mg/kg/injection, schedule: Q01DX001 (ip), vehicle: water 100 % of control | dose: 400.0 mg/kg/injection, schedule: Q01DX001 (ip), vehicle: water 104 % of control

CC1(C)C[N+](C)(Cc2ccccc2)C1
inactive: dose: 100.0 mg/kg/injection, schedule: Q04DX003 (ip), vehicle: saline with Tween-80 101 % of control

CCCCCCN=C(N)c1ccc(NC(=O)c2ccc(C(=O)Nc3ccc(C(N)=NCCCCCC)cc3)cc2)cc1
inactive: dose: 0.62 mg/kg/injection, schedule: Q01DX015 (ip), vehicle: methylcellulose (MC) 101 % of control | dose: 1.25 mg/kg/injection, schedule: Q01DX015 (ip), vehicle: methylcellulose (MC) 95 % of control | dose: 2.5 mg/kg/injection, schedule: Q01DX015 (ip), vehicle: methylcellulose (MC) 103 % of control | dose: 5.0 mg/kg/injection, schedule: Q01DX015 (ip), vehicle: methylcellulose (MC) 112 % of control

O=C(NN(c1ccc([N+](=O)[O-])cc1)c1ccc([N+](=O)[O-])cc1)c1ccccc1
inactive: dose: 50.0 mg/kg/injection, schedule: Q01DX009 (ip), vehicle: Klucel (hydroxypropylcellulose) (HPC) 103 % of control | [1] 100 % of control | [9] 94 % of control | [2] 102 % of control | [10] 93 % of control | [3] 102 % of control | [11] 94 % of control
